Results: PubChem BioAssay (NCI)
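Briefly, cells in 96-well plates were exposed to five compound concentrations for 48 h, and endpoints were estimated by linear interpolation. GI50: concentration for 50% inhibition of growth. TGI denotes the concentration required for complete inhibition of growth.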

Test system: SNB-19 CNS
Experiment: growth of human tumour cells (NCI), 48 h

Structure (SMILES)	TGI [µM]
Cn1c(-c2cccs2)cc(-c2cccs2)c1-c1cccs1	> 100
N=c1c2ccccc2nc2oc3cc([N+](=O)[O-])ccc3n12	> 100
CCOC(=O)CC[C@H](N)C(=O)N[C@@H](Cc1ccc(N(CCCl)CCCl)cc1)C(=O)OCC	18.1
O=C(CSc1ncccn1)N/N=C/c1ccccc1OCc1ccccc1	> 100

Test system: NCI-H522 lung
Experiment: growth of human tumour cells (NCI), 48 h

Structure (SMILES)	TGI [µM]
Cc1sc2nc(N(C)C)oc(=O)c2c1C	> 100
CC(C)OC(=O)c1ccc(NCC2=CC(=O)C=CC2=O)cc1	3.27
CC(C)C[C@H]1[C@@H](OCc2ccccc2)COS(=O)(=O)N1[C@H](C)c1ccccc1	> 100
O=C1c2ccccc2-c2nnc(-c3ccc([N+](=O)[O-])cc3)cc21	> 10
Cn1c(-c2cccs2)cc(-c2cccs2)c1-c1cccs1	> 93.5
N=c1c2ccccc2nc2oc3cc([N+](=O)[O-])ccc3n12	> 100
CCOC(=O)CC[C@H](N)C(=O)N[C@@H](Cc1ccc(N(CCCl)CCCl)cc1)C(=O)OCC	2.54
O=C(CSc1ncccn1)N/N=C/c1ccccc1OCc1ccccc1	79.2

Test system: SN12C renal
Experiment: growth of human tumour cells (NCI), 48 h

Structure (SMILES)	TGI [µM]
Cc1sc2nc(N(C)C)oc(=O)c2c1C	> 100
CC(C)OC(=O)c1ccc(NCC2=CC(=O)C=CC2=O)cc1	26.1
CC(C)C[C@H]1[C@@H](OCc2ccccc2)COS(=O)(=O)N1[C@H](C)c1ccccc1	> 100
O=C1c2ccccc2-c2nnc(-c3ccc([N+](=O)[O-])cc3)cc21	> 10
Cn1c(-c2cccs2)cc(-c2cccs2)c1-c1cccs1	> 100
N=c1c2ccccc2nc2oc3cc([N+](=O)[O-])ccc3n12	> 100
CCOC(=O)CC[C@H](N)C(=O)N[C@@H](Cc1ccc(N(CCCl)CCCl)cc1)C(=O)OCC	9.22
O=C(CSc1ncccn1)N/N=C/c1ccccc1OCc1ccccc1	72.6

Test system: IGROV1 ovarian
Experiment: growth of human tumour cells (NCI), 48 h

Structure (SMILES)	TGI [µM]
Cc1sc2nc(N(C)C)oc(=O)c2c1C	> 100
CC(C)OC(=O)c1ccc(NCC2=CC(=O)C=CC2=O)cc1	26.4
CC(C)C[C@H]1[C@@H](OCc2ccccc2)COS(=O)(=O)N1[C@H](C)c1ccccc1	> 100
O=C1c2ccccc2-c2nnc(-c3ccc([N+](=O)[O-])cc3)cc21	> 10
Cn1c(-c2cccs2)cc(-c2cccs2)c1-c1cccs1	> 100
N=c1c2ccccc2nc2oc3cc([N+](=O)[O-])ccc3n12	> 100
CCOC(=O)CC[C@H](N)C(=O)N[C@@H](Cc1ccc(N(CCCl)CCCl)cc1)C(=O)OCC	4.75
O=C(CSc1ncccn1)N/N=C/c1ccccc1OCc1ccccc1	> 100

Test system: U251 CNS
Experiment: growth of human tumour cells (NCI), 48 h

Structure (SMILES)	TGI [µM]
Cc1sc2nc(N(C)C)oc(=O)c2c1C	> 100
CC(C)OC(=O)c1ccc(NCC2=CC(=O)C=CC2=O)cc1	31.3
CC(C)C[C@H]1[C@@H](OCc2ccccc2)COS(=O)(=O)N1[C@H](C)c1ccccc1	> 67.7
O=C1c2ccccc2-c2nnc(-c3ccc([N+](=O)[O-])cc3)cc21	> 10
Cn1c(-c2cccs2)cc(-c2cccs2)c1-c1cccs1	> 100
N=c1c2ccccc2nc2oc3cc([N+](=O)[O-])ccc3n12	29.6
CCOC(=O)CC[C@H](N)C(=O)N[C@@H](Cc1ccc(N(CCCl)CCCl)cc1)C(=O)OCC	7.39
O=C(CSc1ncccn1)N/N=C/c1ccccc1OCc1ccccc1	81.7

Test system: HCT-116 colon
Experiment: growth of human tumour cells (NCI), 48 h

Structure (SMILES)	TGI [µM]
Cc1sc2nc(N(C)C)oc(=O)c2c1C	> 100
CC(C)OC(=O)c1ccc(NCC2=CC(=O)C=CC2=O)cc1	28.6
CC(C)C[C@H]1[C@@H](OCc2ccccc2)COS(=O)(=O)N1[C@H](C)c1ccccc1	> 100
O=C1c2ccccc2-c2nnc(-c3ccc([N+](=O)[O-])cc3)cc21	> 10
Cn1c(-c2cccs2)cc(-c2cccs2)c1-c1cccs1	> 100
N=c1c2ccccc2nc2oc3cc([N+](=O)[O-])ccc3n12	> 100
CCOC(=O)CC[C@H](N)C(=O)N[C@@H](Cc1ccc(N(CCCl)CCCl)cc1)C(=O)OCC	4.09
O=C(CSc1ncccn1)N/N=C/c1ccccc1OCc1ccccc1	53.4

Test system: SW-620 colon
Experiment: growth of human tumour cells (NCI), 48 h

Structure (SMILES)	TGI [µM]
Cc1sc2nc(N(C)C)oc(=O)c2c1C	> 100
CC(C)OC(=O)c1ccc(NCC2=CC(=O)C=CC2=O)cc1	26.5
CC(C)C[C@H]1[C@@H](OCc2ccccc2)COS(=O)(=O)N1[C@H](C)c1ccccc1	> 100
O=C1c2ccccc2-c2nnc(-c3ccc([N+](=O)[O-])cc3)cc21	> 10
Cn1c(-c2cccs2)cc(-c2cccs2)c1-c1cccs1	> 100
N=c1c2ccccc2nc2oc3cc([N+](=O)[O-])ccc3n12	> 100
CCOC(=O)CC[C@H](N)C(=O)N[C@@H](Cc1ccc(N(CCCl)CCCl)cc1)C(=O)OCC	5.87
O=C(CSc1ncccn1)N/N=C/c1ccccc1OCc1ccccc1	> 100

Test system: UO-31 renal
Experiment: growth of human tumour cells (NCI), 48 h

Structure (SMILES)	TGI [µM]
Cc1sc2nc(N(C)C)oc(=O)c2c1C	> 100
CC(C)OC(=O)c1ccc(NCC2=CC(=O)C=CC2=O)cc1	21.8
CC(C)C[C@H]1[C@@H](OCc2ccccc2)COS(=O)(=O)N1[C@H](C)c1ccccc1	> 100
O=C1c2ccccc2-c2nnc(-c3ccc([N+](=O)[O-])cc3)cc21	> 10
Cn1c(-c2cccs2)cc(-c2cccs2)c1-c1cccs1	> 100
N=c1c2ccccc2nc2oc3cc([N+](=O)[O-])ccc3n12	32.3
CCOC(=O)CC[C@H](N)C(=O)N[C@@H](Cc1ccc(N(CCCl)CCCl)cc1)C(=O)OCC	3.44
O=C(CSc1ncccn1)N/N=C/c1ccccc1OCc1ccccc1	> 100

Test system: OVCAR-8 ovarian
Experiment: growth of human tumour cells (NCI), 48 h

Structure (SMILES)	TGI [µM]	GI50 [nM]
Cc1sc2nc(N(C)C)oc(=O)c2c1C	> 100	–
CC(C)OC(=O)c1ccc(NCC2=CC(=O)C=CC2=O)cc1	29.7	–
CC(C)C[C@H]1[C@@H](OCc2ccccc2)COS(=O)(=O)N1[C@H](C)c1ccccc1	> 100	–
O=C1c2ccccc2-c2nnc(-c3ccc([N+](=O)[O-])cc3)cc21	> 10	–
Cn1c(-c2cccs2)cc(-c2cccs2)c1-c1cccs1	> 100	–
N=c1c2ccccc2nc2oc3cc([N+](=O)[O-])ccc3n12	51.2	–
CCOC(=O)CC[C@H](N)C(=O)N[C@@H](Cc1ccc(N(CCCl)CCCl)cc1)C(=O)OCC	1.99	564
O=C(CSc1ncccn1)N/N=C/c1ccccc1OCc1ccccc1	> 100	–

Test system: SK-OV-3 ovarian
Experiment: growth of human tumour cells (NCI), 48 h

Structure (SMILES)	TGI [µM]
Cc1sc2nc(N(C)C)oc(=O)c2c1C	> 100
CC(C)OC(=O)c1ccc(NCC2=CC(=O)C=CC2=O)cc1	> 100
CC(C)C[C@H]1[C@@H](OCc2ccccc2)COS(=O)(=O)N1[C@H](C)c1ccccc1	> 100
O=C1c2ccccc2-c2nnc(-c3ccc([N+](=O)[O-])cc3)cc21	> 10
Cn1c(-c2cccs2)cc(-c2cccs2)c1-c1cccs1	> 100
N=c1c2ccccc2nc2oc3cc([N+](=O)[O-])ccc3n12	37.1
CCOC(=O)CC[C@H](N)C(=O)N[C@@H](Cc1ccc(N(CCCl)CCCl)cc1)C(=O)OCC	4.99
O=C(CSc1ncccn1)N/N=C/c1ccccc1OCc1ccccc1	> 100
